Test results as given in ChEMBL document CHEMBL5291721, “A preclinical secondary pharmacology resource illuminates target-adverse drug reaction associations of marketed drugs” (Nat Commun, 2023).

What was measured:
[1] = target: T1, Adenosine receptor A3 (Homo sapiens, UniProt P0DMS8)
T1 sequence (P0DMS8 whole entry): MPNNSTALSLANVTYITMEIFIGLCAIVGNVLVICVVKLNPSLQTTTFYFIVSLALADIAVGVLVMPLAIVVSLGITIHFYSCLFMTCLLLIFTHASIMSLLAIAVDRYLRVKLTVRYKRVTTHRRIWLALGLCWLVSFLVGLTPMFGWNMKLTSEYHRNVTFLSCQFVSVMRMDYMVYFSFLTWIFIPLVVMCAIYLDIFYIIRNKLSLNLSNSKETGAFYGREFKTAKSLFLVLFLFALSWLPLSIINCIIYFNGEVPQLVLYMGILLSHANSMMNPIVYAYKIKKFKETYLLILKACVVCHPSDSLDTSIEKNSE

[2] = target: D(1A) dopamine receptor (Homo sapiens, UniProt P21728); format: functional, cell-based
Chain of D(1A) dopamine receptor (P21728 whole entry): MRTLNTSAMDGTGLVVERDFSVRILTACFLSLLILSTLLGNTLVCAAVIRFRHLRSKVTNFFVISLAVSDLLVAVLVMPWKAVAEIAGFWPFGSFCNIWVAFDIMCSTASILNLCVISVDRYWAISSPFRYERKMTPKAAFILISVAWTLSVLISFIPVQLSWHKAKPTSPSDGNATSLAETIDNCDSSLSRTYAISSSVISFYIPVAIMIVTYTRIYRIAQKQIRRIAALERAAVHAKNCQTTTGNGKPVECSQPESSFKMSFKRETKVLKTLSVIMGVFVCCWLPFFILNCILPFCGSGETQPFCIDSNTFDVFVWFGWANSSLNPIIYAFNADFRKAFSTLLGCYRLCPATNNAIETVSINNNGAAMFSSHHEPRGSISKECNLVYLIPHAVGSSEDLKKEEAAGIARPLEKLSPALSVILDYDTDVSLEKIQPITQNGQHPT

[3] = target: Histamine H2 receptor (Homo sapiens, UniProt P25021); format: functional, cell-based
Chain of Histamine H2 receptor (P25021 whole entry): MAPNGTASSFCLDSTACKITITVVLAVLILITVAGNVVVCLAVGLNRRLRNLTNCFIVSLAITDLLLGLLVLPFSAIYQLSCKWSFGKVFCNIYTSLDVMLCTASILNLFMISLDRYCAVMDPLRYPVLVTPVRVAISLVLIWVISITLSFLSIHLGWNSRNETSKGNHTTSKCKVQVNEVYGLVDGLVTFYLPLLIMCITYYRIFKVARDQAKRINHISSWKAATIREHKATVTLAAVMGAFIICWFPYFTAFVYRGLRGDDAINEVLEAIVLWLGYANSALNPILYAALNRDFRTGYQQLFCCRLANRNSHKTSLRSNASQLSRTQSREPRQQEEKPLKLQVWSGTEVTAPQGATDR

[4] = target: 5-hydroxytryptamine receptor 2B (Homo sapiens, UniProt P41595); format: functional, cell-based
Chain of 5-hydroxytryptamine receptor 2B (P41595 whole entry): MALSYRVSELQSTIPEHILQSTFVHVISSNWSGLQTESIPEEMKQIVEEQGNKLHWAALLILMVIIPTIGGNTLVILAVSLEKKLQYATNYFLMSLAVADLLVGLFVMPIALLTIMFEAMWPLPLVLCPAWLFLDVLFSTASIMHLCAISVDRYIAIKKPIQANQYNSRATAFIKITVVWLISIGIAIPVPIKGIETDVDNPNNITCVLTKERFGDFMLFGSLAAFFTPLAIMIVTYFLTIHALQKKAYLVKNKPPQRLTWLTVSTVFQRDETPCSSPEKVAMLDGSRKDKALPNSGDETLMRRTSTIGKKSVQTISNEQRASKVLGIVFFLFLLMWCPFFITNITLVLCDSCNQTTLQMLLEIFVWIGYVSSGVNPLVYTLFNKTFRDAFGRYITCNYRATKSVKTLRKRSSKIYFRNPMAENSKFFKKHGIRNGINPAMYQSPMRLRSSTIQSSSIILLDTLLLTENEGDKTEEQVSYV

[5] = target: Melanocortin receptor 4 (Homo sapiens, UniProt P32245)
Chain of Melanocortin receptor 4 (P32245 whole entry): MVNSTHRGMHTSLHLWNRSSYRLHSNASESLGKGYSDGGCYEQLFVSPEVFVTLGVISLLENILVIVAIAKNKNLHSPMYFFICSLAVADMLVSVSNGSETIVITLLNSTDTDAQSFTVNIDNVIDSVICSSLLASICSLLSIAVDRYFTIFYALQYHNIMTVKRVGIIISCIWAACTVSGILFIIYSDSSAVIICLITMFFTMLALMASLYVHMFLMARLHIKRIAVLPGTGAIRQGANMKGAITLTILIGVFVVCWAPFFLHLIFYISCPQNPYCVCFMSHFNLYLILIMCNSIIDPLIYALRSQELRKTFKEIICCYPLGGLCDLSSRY

[6] = target: T2, Neuropeptide Y receptor type 1 (Homo sapiens, UniProt P25929)
T2 sequence (P25929 whole entry): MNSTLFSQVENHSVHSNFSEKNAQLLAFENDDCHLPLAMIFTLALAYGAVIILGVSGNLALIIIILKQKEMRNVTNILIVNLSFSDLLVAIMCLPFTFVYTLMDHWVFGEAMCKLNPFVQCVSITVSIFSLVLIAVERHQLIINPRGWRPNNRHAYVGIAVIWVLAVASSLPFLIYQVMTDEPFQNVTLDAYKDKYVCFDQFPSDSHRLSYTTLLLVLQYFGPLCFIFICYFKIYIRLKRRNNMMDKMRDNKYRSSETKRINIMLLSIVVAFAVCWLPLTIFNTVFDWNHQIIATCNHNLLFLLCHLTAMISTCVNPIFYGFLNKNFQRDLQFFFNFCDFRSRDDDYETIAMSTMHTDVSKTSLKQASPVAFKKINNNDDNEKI

[7] = target: T3, Progesterone receptor (Homo sapiens, UniProt P06401); format: functional
T3 sequence (P06401 whole entry): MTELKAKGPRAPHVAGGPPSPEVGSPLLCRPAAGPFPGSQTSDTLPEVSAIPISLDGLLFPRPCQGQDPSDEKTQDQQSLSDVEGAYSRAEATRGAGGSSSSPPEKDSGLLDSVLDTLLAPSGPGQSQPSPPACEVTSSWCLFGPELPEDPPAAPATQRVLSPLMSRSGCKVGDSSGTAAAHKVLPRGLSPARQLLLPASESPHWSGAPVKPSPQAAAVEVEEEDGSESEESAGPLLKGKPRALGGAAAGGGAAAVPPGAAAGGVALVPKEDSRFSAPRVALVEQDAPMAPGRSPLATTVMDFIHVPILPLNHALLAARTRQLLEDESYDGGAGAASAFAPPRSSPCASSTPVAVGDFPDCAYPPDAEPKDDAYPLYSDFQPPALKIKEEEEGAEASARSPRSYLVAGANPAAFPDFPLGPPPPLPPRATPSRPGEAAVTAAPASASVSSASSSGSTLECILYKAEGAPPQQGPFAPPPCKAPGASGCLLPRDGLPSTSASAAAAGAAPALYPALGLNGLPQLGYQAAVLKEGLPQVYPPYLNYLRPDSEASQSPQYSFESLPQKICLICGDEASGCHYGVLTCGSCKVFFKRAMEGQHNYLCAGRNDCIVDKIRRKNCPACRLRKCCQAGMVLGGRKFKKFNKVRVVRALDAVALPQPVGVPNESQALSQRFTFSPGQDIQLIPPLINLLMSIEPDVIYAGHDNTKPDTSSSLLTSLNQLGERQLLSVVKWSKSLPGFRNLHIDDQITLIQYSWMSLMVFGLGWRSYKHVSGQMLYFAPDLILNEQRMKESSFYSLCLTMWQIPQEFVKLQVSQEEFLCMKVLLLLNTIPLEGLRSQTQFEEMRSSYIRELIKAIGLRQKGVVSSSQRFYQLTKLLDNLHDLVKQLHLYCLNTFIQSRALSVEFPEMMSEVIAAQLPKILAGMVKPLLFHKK

[8] = target: T4, Equilibrative nucleoside transporter 1 (Homo sapiens, UniProt Q99808)
T4 sequence (Q99808 whole entry): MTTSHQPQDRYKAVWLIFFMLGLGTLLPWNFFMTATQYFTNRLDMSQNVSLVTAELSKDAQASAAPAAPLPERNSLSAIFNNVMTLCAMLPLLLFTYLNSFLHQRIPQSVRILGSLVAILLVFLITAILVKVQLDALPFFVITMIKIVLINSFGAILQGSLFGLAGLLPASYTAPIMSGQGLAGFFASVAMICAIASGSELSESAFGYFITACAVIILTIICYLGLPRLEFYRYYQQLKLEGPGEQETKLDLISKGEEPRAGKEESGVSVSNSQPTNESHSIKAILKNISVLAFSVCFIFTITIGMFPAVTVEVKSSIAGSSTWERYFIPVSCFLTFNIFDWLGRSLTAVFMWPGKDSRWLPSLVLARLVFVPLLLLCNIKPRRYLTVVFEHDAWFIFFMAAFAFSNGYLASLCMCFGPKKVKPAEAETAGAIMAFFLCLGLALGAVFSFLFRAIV

[9] = target: T5, Alpha-1A adrenergic receptor (Homo sapiens, UniProt P35348); format: functional, cell-based
T5 sequence (P35348 whole entry): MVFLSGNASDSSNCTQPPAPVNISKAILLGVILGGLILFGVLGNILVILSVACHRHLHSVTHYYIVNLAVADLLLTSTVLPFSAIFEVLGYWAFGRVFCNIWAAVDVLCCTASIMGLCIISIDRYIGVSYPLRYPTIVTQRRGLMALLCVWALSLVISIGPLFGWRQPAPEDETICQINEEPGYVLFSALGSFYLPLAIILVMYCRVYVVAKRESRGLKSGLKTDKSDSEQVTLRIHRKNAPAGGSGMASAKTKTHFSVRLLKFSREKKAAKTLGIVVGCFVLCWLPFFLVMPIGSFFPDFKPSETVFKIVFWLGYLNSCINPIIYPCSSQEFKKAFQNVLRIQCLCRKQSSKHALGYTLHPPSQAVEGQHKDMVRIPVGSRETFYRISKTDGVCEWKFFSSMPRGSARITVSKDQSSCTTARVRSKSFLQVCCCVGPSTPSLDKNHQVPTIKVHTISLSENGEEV
Also: assay procedure not described here.

| Compound | AC50 [1] [µM] | AC50 [2] [µM] | AC50 [3] [µM] | AC50 [4] [µM] | AC50 [5] [µM] | AC50 [6] [µM] | AC50 [7] [µM] | AC50 [8] [µM] | AC50 [9] [µM] |
| --- | --- | --- | --- | --- | --- | --- | --- | --- | --- |
| CN(C)Cc1nnc2n1-c1ccc(Cl)cc1C(c1ccccc1)=NC2 [ADINAZOLAM] | > 10 | > 10 | > 10 | > 10 | > 10 | > 10 | > 10 | > 10 |  |
| Cc1ccccc1-n1c(CF)nc2ccc(N)cc2c1=O [AFLOQUALONE] | > 30 | > 30 | > 30 | > 10 | > 30 | > 30 | > 30 | > 30 |  |
| CCOC(=O)c1ccc(N)cc1 [BENZOCAINE] | > 10 | > 10 | > 10 | > 10 | > 10 | > 10 | > 10 | > 10 |  |
| CC(C)(Oc1ccc(CCNC(=O)c2ccc(Cl)cc2)cc1)C(=O)O [BEZAFIBRATE] | > 10 | > 10 | > 10 | > 10 | > 10 | > 10 | > 10 | > 10 | > 30 |
| C/C=C(/C(=C/C)c1ccc(O)cc1)c1ccc(O)cc1 [DIENESTROL] | 7.3 | > 10 | > 10 | > 10 | > 10 | > 10 | > 30 | > 30 |  |
| COc1ccc([C@@H]2CC(=O)c3c(O)cc(O)cc3O2)cc1O [HESPERETIN] | > 10 | > 30 | > 30 | > 10 | > 10 | > 10 | > 10 | > 10 |  |
| CN(C)CCCN1c2ccccc2CCc2ccccc21 [IMIPRAMINE] | 30.8 | > 10 | > 10 | 5 | 21.4 | > 30 |  | > 30 | > 30 |
| CCC[C@@H]1C[C@@H](C(=O)N[C@@H]([C@H]2O[C@H](SC)[C@H](O)[C@@H](O)[C@H]2O)[C@@H](C)O)N(C)C1 [LINCOMYCIN] | > 10 | > 10 | > 10 | > 30 | > 10 | > 10 |  | > 10 | > 30 |
| C=C1c2cccc(O)c2C(=O)C2=C(O)[C@]3(O)C(=O)C(C(N)=O)=C(O)[C@@H](N(C)C)[C@@H]3[C@@H](O)[C@H]12 [METHACYCLINE] | > 30 | > 10 | > 10 | > 10 | 41.5 | > 30 | > 30 | > 10 |  |
| CN(Cc1cnc2nc(N)nc(N)c2n1)c1ccc(C(=O)N[C@@H](CCC(=O)O)C(=O)O)cc1 [METHOTREXATE] | > 30 | > 10 | > 10 | > 10 | > 30 | > 30 |  | > 30 | > 30 |
| Cc1ccccc1N1C(=O)c2cc(S(N)(=O)=O)c(Cl)cc2NC1C (stereo not given) [METOLAZONE] | > 10 | > 10 | > 10 | > 10 | > 10 | > 10 | > 10 | > 10 |  |
| O=C(O)c1cccnc1Nc1cccc(C(F)(F)F)c1 [NIFLUMIC ACID] | > 10 | > 10 | > 10 | > 10 | > 10 | > 10 | > 10 | > 10 |  |
| O=C1c2cccc3c2[C@H](CCC3)CN1[C@@H]1CN2CCC1CC2 [PALONOSETRON] | > 30 | > 30 | > 30 | > 30 | > 30 | > 30 | > 30 | > 30 | > 30 |
| O=C1c2ccccc2C(=O)C1c1ccccc1 [PHENINDIONE] | > 10 | > 10 | > 10 | 18 | > 10 | > 10 | > 10 | > 10 | > 30 |
